The values below come from ChEMBL document CHEMBL1201862, “PubChem BioAssay data set” (2004).

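Method: 48-hour compound exposure of cells in 96-well plates, five concentrations, linear interpolation of endpoints. The concentration for 50% growth inhibition is given as GI50.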 Active and inactive are the calls of the source. No stated cut-off is given here; in the data, active = GI50 up to about 1.1 µM and inactive = higher.

Common to all, as to test: NCI tumour cell line growth inhibition, 48 h
Assay [1] has as its system DLD-1.
In assay [2] the test system is SF-539.
The test system of assay [3] is A549.
Assay [4] concerns A498.
Assay [5] concerns SK-MEL-5.
The subject of assay [6] is SR.
The test system of assay [7] is NCI-H226.
In assay [8] the test system is 786-0.
Assay [9] has as its system UACC-257.
In assay [10] the test system is NCI-H460.
Assay [11] concerns TK-10.
The test system of assay [12] is CAKI-1.
The subject of assay [13] is OVCAR-4.
Assay [14] deals with RXF 393.
In assay [15] the test system is HOP-92.
Assay [16] has as its system SN12C.
For assay [17], the system named is SK-OV-3.
The test system of assay [18] is NCI-H522.
For assay [19], the system named is EKVX.

On to `Oc1ccc2c(c1)OCC1(O)Cc3cc(O)c(O)cc3C21` (configuration not stated), for which the GI50 is 17.3 µM (inactive) in assay [1]; 17 µM (inactive) in assay [2]; > 57.7 µM (inactive) in [3]; 19.1 µM (inactive) in [4]; 17.7 µM (inactive) in [5]; 30.8 µM (inactive) in [6]. The GI50 is > 52.5 µM (inactive) in [7]; 19.5 µM (inactive) in assay [8]; 19.9 µM (inactive) in assay [9]; 27.8 µM (inactive) in [10]; 17.4 µM (inactive) in assay [11]; 18.1 µM (inactive) in assay [12]. Besides, the GI50 in [13] was 19.1 µM (inactive); in [14], 15.9 µM (inactive); in assay [15], 21.6 µM (inactive); in assay [16] it was 21.8 µM (inactive); in [17], 39.9 µM (inactive); in assay [18], 21.3 µM (inactive). Also, the GI50 in [19] is 27 µM (inactive).
Turning to `O=C1[C@@H]2C3c4ccccc4C([C@@H]2C(=O)N1c1ccccc1)S3(=O)=O`, the GI50 in assay [1] is > 100 µM (inactive); in [2], > 100 µM (inactive); in [5] it was > 100 µM (inactive); in assay [6], > 100 µM (inactive); in assay [7], > 100 µM (inactive); in [8], 55.8 µM (inactive). Moreover, the GI50 in assay [9] is > 100 µM (inactive); in [10], 31.1 µM (inactive); in [11] it was > 100 µM (inactive); in assay [14] it was 38.1 µM (inactive); in [15], > 100 µM (inactive); in assay [16], 61.5 µM (inactive). The GI50 in [17] was > 100 µM (inactive); in [18] it was 74.3 µM (inactive); in assay [19] it was > 100 µM (inactive).
For `COc1ccc(C(=O)C(c2ccc(OCc3ccccc3)cc2)c2ccc(OCc3ccccc3)cc2)cc1`, the GI50 in assay [1], in assay [2], in assay [3], in [5], in [6] and in assay [7] was > 100 µM (inactive) each time. Moreover, the GI50 in [8], in [10], in assay [11], in assay [12], in assay [13] and in [14] was > 100 µM (inactive) throughout. Moreover, the GI50 in assay [15], in [16], in assay [17], in [18] and in assay [19] was > 100 µM (inactive) each time.
On to `COc1ccc2[nH]cc(CCNC(=O)[C@](O)(Cc3cn(C)c4ccccc34)[C@@]3(O)OCC(O)C3O)c2c1` (some centres not stated), for which the GI50 in assay [1] was > 100 µM (inactive); in assay [2], 40.4 µM (inactive); in assay [3] it was > 100 µM (inactive); in assay [5], > 100 µM (inactive); in assay [6], > 100 µM (inactive); in [7], > 100 µM (inactive). Moreover, the GI50 in assay [8] is > 100 µM (inactive); in assay [9] it was > 100 µM (inactive); in assay [10], 77.4 µM (inactive); in [11], > 100 µM (inactive); in assay [12], > 100 µM (inactive); in assay [13] it was > 100 µM (inactive). In addition, the GI50 in [14] was > 100 µM (inactive); in [15], 50.2 µM (inactive); in assay [16] it was > 100 µM (inactive); in assay [17], > 100 µM (inactive); in assay [18] it was > 100 µM (inactive); in assay [19], > 100 µM (inactive).
Regarding `Cc1cc(O)nc(CNC(=O)c2ccc3ccccc3c2)n1`, the GI50 in assay [1], in assay [2], in assay [3], in assay [4], in [5] and in [6] was > 100 µM (inactive) throughout. In addition, the GI50 in assay [7], in assay [8], in assay [9], in assay [10], in assay [11] and in assay [12] was > 100 µM (inactive) throughout. The GI50 in assay [13], in assay [14], in [15], in assay [16], in assay [17] and in assay [18] was > 100 µM (inactive) throughout. For the same compound, the GI50 in assay [19] is > 100 µM (inactive).
In the case of `CCOC(=O)NC/C=C/COC1CCCCO1` (configuration not stated), the GI50 in assay [1], in [2], in [3], in assay [4], in assay [5] and in assay [6] was > 100 µM (inactive) in each case. For the same compound, the GI50 in assay [7], in assay [8], in assay [9], in assay [10], in assay [11] and in assay [12] was > 100 µM (inactive) throughout. In addition, the GI50 in [13], in [14], in [16], in assay [17] and in assay [18] was > 100 µM (inactive) throughout.
On to `CCCCCCCC(=O)OCC1OC(OC)C(NC(=O)N(CCCl)N=O)C(O)C1O` (configuration not stated), for which the GI50 is 11.9 µM (inactive) in assay [1]; 2.64 µM (inactive) in assay [2]; 9.91 µM (inactive) in assay [3]; 21.5 µM (inactive) in assay [4]; 15.1 µM (inactive) in assay [5]; 0.272 µM (active) in [6]. For the same compound, the GI50 in [7] is 15.7 µM (inactive); in assay [8], 3.92 µM (inactive); in assay [9], 16.1 µM (inactive); in [10] it was 3.46 µM (inactive); in [11], 18.5 µM (inactive); in assay [12], 9.08 µM (inactive). The GI50 in [13] is > 54.6 µM (inactive); in [14], 16.1 µM (inactive); in assay [15], 1.36 µM (inactive); in assay [16] it was 7.67 µM (inactive); in assay [17], 28.5 µM (inactive); in assay [18], 11.2 µM (inactive). For the same compound, the GI50 in [19] is 30.6 µM (inactive).
As for `Nc1ccccc1C(=O)/C=C/c1c(O)ccc2ccccc12`, the GI50 in assay [1], in assay [2], in assay [3], in assay [4], in [5] and in assay [6] was > 100 µM (inactive) throughout. Moreover, the GI50 in assay [7], in assay [8], in [9], in [10], in assay [11] and in assay [12] was > 100 µM (inactive) throughout. Besides, the GI50 was > 100 µM (inactive) in [13]; > 100 µM (inactive) in assay [14]; > 100 µM (inactive) in assay [15]; 32.7 µM (inactive) in assay [16]; > 100 µM (inactive) in assay [17]; > 100 µM (inactive) in assay [18]. Besides, the GI50 in assay [19] is > 100 µM (inactive).
As for `C=CCC12CCC(=O)[C@@]1(C)CC=C(O)C2=O` (some centres not stated), the GI50 in assay [1], in assay [2], in assay [3], in [4], in assay [5] and in assay [6] was > 100 µM (inactive) each time. Further, the GI50 in assay [7], in assay [8], in [9], in assay [10], in assay [11] and in assay [12] was > 100 µM (inactive) in each case. The GI50 in assay [13], in assay [14], in [15], in [16], in assay [17] and in [18] was > 100 µM (inactive) throughout. The GI50 in assay [19] is > 100 µM (inactive).
For the compound `N#Cc1ccc(Cc2ccccn2)cc1Cl`, the GI50 in assay [1], in assay [2], in assay [3], in assay [5], in assay [6] and in assay [7] was > 100 µM (inactive) throughout. The GI50 in [8], in assay [9], in assay [10], in [11], in [12] and in [13] was > 100 µM (inactive) in each case. The GI50 in assay [14], in [15], in [16], in assay [17], in [18] and in [19] was > 100 µM (inactive) each time.
For `COc1ccc2c(c1)O[C@@H]1c3ccc(OC)cc3OC[C@H]21`, the GI50 was 45.2 µM (inactive) in assay [1]; 38.1 µM (inactive) in assay [2]; 29.2 µM (inactive) in assay [3]; 17.4 µM (inactive) in assay [5]; 22.9 µM (inactive) in [6]; 21.5 µM (inactive) in assay [7]. Further, the GI50 in assay [8] was 25.4 µM (inactive); in assay [9], > 10 µM (inactive); in [10], 26.2 µM (inactive); in assay [11], 35.6 µM (inactive); in assay [12], 29.6 µM (inactive); in [13], 29.2 µM (inactive). The GI50 in [14] is 22.4 µM (inactive); in assay [15], 17.1 µM (inactive); in assay [16], 55.2 µM (inactive); in [17], 57 µM (inactive); in assay [18], 15.3 µM (inactive).
